According to patent US20090068646A1, “METHODS AND KITS FOR DETECTING MUTATIONS” (PROMEGA CORPORATION, priority 2004, published 2009):
Read-outs that look alike come from different tables or passages of the source.

How the values were obtained:
Type in all cases: in vivo, C75BL/6 mice
mononucleotide repeats [1] = conditions: 50 mg/kg intraperitoneal, liver DNA
Procedure: (§1) Treatment of mice used in paraquat studies. […] mice were housed and inbred at the University of Wisconsin, with an average life span 30 months. Four groups of three mice were included in the study: 5-month old mice (young control or YC); 5-month old mice treated with paraquat; 24-month old mice (old age); and 24-month old mice treated with paraquat. Paraquat-treated animals received a single intraperitoneal injection of 50 mg/kg body weight dissolved in PBS 24 hours after their last feeding. Each mouse was sacrificed by cervical dislocation.
(§2) Tissue Preparation, DNA Extraction and Quantification. The entire liver from each mouse was dissected, washed with PBS, placed in a 1.5 ml Ependorf tube, snap frozen in liquid nitrogen, and stored at −80° C. DNA was prepared from the mouse liver tissue by using the DNA-IQ Tissue and Hair Extraction Kit (Promega Corporation, Madison, Wis.) and was quantified using the PicoGreen dsDNA Quantitative Kit (Molecular Probes, Eugene, Oreg.) following manufacturers protocols.
Detection of Mutations in Microsatellites using small pool PCR. […] The stability of four short mononucleotide repeats (mBAT-24, mBAT-26, mBat-30, mBAT-37) and three extended mononucleotide repeats (mBAT-59, mBAT-64 and mBAT-67) were evaluated.
SP-PCR was performed for mutation analysis using 1-2 copies of genomic DNA (6-12 pg). PCR cycles and conditions are the same as described above except that the annealing temperature was 58° C.
Identification of PCR Products. Separation and detection of amplified fragments was performed on an ABI PRISM® 3100 Genetic Analyzer following the manufacturer's protocol (Applied Biosystems, Foster City, Calif.). Data was analyzed with the GeneScan and Genotyper computer software packages (Applied Biosystems).
Statistical Analysis. Statistical analysis was done using the statistical Package Sigma Stat version 3, where P value was determined by using one-way ANOVA for each specific group, using Holm-Sidak method did comparisons between the groups.

mtDNA = conditions: old age paraquat-treated group, three mice
Procedure: as §1, §2
mtDNA Deletion Detection. Based on the mouse mtDNA sequence, four fluorescence labeled primer pairs were designed to detect both wildtype sequences and mtDNA deletions.
PCR Conditions. […]
Identification of PCR Products. […] Data was analyzed with the GeneScan and Genotyper computer software packages (Applied Biosystems).

mononucleotide repeats [2] = conditions: for Mutation Freq / # Mutants: 50 mg/kg intraperitoneal, liver DNA
[3] = marker mBat-24, Old w/Paraquat (24-month old mice)
[4] = marker mBat-26, Young w/Paraquat (5-month old mice)
[5] = marker mBat-30, Old w/Paraquat (24-month old mice)
[6] = marker mBat-30, Young w/Paraquat (5-month old mice)
[7] = marker mBat-59, Old w/Paraquat (24-month old mice)
[8] = marker mBat-64, Young w/Paraquat (5-month old mice)
[9] = marker mBat-67, Young w/Paraquat (5-month old mice)
[10] = marker mBat-24, Young w/Paraquat (5-month old mice)
[11] = marker mBat-26, Old w/Paraquat (24-month old mice)
[12] = marker mBat-37, Old w/Paraquat (24-month old mice)
[13] = marker mBat-37, Young w/Paraquat (5-month old mice)
[14] = marker mBat-49, Old w/Paraquat (24-month old mice)
[15] = marker mBat-51a, Old w/Paraquat (24-month old mice)
[16] = marker mBat-51b, Old w/Paraquat (24-month old mice)
[17] = marker mBat-52, Old w/Paraquat (24-month old mice)
[18] = marker mBat-59, Young w/Paraquat (5-month old mice)
[19] = marker mBat-61a, Old w/Paraquat (24-month old mice)
[20] = marker mBat-64, Old w/Paraquat (24-month old mice)
[21] = marker mBat-66, Old w/Paraquat (24-month old mice)
[22] = marker mBat-66, Young w/Paraquat (5-month old mice)
[23] = marker mBat-67, Old w/Paraquat (24-month old mice)
[24] = paraquat-treated old age group, loci mBAT-59, mBAT-64, mBAT-66 or mBAT-67 combined

C[n+]1ccc(-c2cc[n+](C)cc2)cc1 [Paraquat]
# Mutants (mononucleotide repeats [1]; [3]): 0
Mutation Freq (mononucleotide repeats [1]; [4]): 0.000
Mutation Freq (mononucleotide repeats [1]; [5]): 0.000
# Mutants (mononucleotide repeats [1]; [6]): 0
# Mutants (mononucleotide repeats [1]; [7]): 6
Mutation Freq (mononucleotide repeats [1]; [8]): 0
Mutation Freq (mononucleotide repeats [1]; [9]): 0
mice showing Δ-mtDNA4977 (mtDNA): All three
Mutation Freq (mononucleotide repeats [2]; [3]): 0.000
# Mutants (mononucleotide repeats [2]; [10]): 1
Mutation Freq (mononucleotide repeats [2]; [10]): 0.002
# Mutants (mononucleotide repeats [2]; [11]): 0
Mutation Freq (mononucleotide repeats [2]; [11]): 0.000
# Mutants (mononucleotide repeats [2]; [4]): 0
# Mutants (mononucleotide repeats [2]; [5]): 0
Mutation Freq (mononucleotide repeats [2]; [6]): 0.000
# Mutants (mononucleotide repeats [2]; [12]): 0
Mutation Freq (mononucleotide repeats [2]; [12]): 0.000
# Mutants (mononucleotide repeats [2]; [13]): 1
Mutation Freq (mononucleotide repeats [2]; [13]): 0.001
# Mutants (mononucleotide repeats [2]; [14]): 0
Mutation Freq (mononucleotide repeats [2]; [14]): 0.000
# Mutants (mononucleotide repeats [2]; [15]): 0
Mutation Freq (mononucleotide repeats [2]; [15]): 0.000
# Mutants (mononucleotide repeats [2]; [16]): 0
Mutation Freq (mononucleotide repeats [2]; [16]): 0.000
# Mutants (mononucleotide repeats [2]; [17]): 0
Mutation Freq (mononucleotide repeats [2]; [17]): 0.000
Mutation Freq (mononucleotide repeats [2]; [7]): 0.013
# Mutants (mononucleotide repeats [2]; [18]): 4
Mutation Freq (mononucleotide repeats [2]; [18]): 0
# Mutants (mononucleotide repeats [2]; [19]): 2
Mutation Freq (mononucleotide repeats [2]; [19]): 0.005
# Mutants (mononucleotide repeats [2]; [20]): 8
Mutation Freq (mononucleotide repeats [2]; [20]): 0.019
# Mutants (mononucleotide repeats [2]; [8]): 1
# Mutants (mononucleotide repeats [2]; [21]): 8
Mutation Freq (mononucleotide repeats [2]; [21]): 0.018
# Mutants (mononucleotide repeats [2]; [22]): 3
Mutation Freq (mononucleotide repeats [2]; [22]): 0
# Mutants (mononucleotide repeats [2]; [23]): 20
Mutation Freq (mononucleotide repeats [2]; [23]): 0.051
# Mutants (mononucleotide repeats [2]; [9]): 1
mutations detected in loci mBAT-24, mBAT-26, mBat-30, or mBAT-37 (mononucleotide repeats [2]; old paraquat-treated group, short mononucleotide repeats combined): no mutations out of 1608 alleles
mutant alleles / alleles assayed (mononucleotide repeats [2]; [24]): 25/1649
mutations in mononucleotide repeat alleles assayed (mononucleotide repeats [2]; [24]): over 1.8%
